Where two headings read alike, the source gives them in different places.
Legend:
Puccinia triticina = experiment: Wheat Brown Rust (PUCCRT) fungicidal activity; format: in vivo; details: for pest or weed control at 121.5 g/ha: Low Volume application, 121.5 g/H; for pest or weed control at 100 ppm: High Volume application
In short: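 Yuma wheat seedlings at first-leaf stage sprayed to run-off with acetone/water (Triton X-100) solutions, inoculated with P. triticina spores before or after treatment. Overnight dark dew at 22° C, then greenhouse at 24° C; percent disease control from severity versus untreated plants.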

Zymoseptoria tritici = experiment: Leaf Blotch of Wheat (SEPTTR) fungicidal activity; format: in vivo; details: wheat leaf blotch; for pest or weed control at 121.5 g/ha: Low Volume application, 121.5 g/H; for pest or weed control at 100 ppm: High Volume application
In short: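 Wheat seedlings (Yuma, first leaf emerged) were sprayed to run-off with compound in acetone/water containing Triton X-100 and inoculated with Z. tritici spores before or after treatment. Percent disease control comes from 0–100% severity on treated versus untreated plants.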

[1] = 24 h, 1 day protectant, read-out: PUCCRT disease control, 1DP (1 Day Protectant)
[2] = 72 h, 3 day curative, read-out: PUCCRT disease control, 3DC (3 Day Curative)
[3] = 24 h, 1 day protectant, read-out: SEPTTR disease control, 1DP (1 Day Protectant)
[4] = 72 h, 3 day curative, read-out: SEPTTR disease control, 3DC (3 Day Curative)

COc1ccnc(C(=O)N[C@H]2COCC[C@H](Cc3ccc(F)cc3)[C@@H](Oc3ccccc3)[C@H](C)OC2=O)c1OCOC(=O)C(C)C [Compound 73]
pest or weed control at 121.5 g/ha (Puccinia triticina; [1]): > 80% | pest or weed control at 121.5 g/ha (Puccinia triticina; [2]): > 80% | pest or weed control at 121.5 g/ha (Zymoseptoria tritici; [3]): > 80% | pest or weed control at 121.5 g/ha (Zymoseptoria tritici; [4]): > 80%

COc1ccnc(C(=O)N[C@H]2COCC[C@H](Cc3ccc(F)cc3)[C@@H](OCC3CC3)[C@H](C)OC2=O)c1OCOC(C)=O [Compound 74]
pest or weed control at 121.5 g/ha (Puccinia triticina; [1]): > 80% | pest or weed control at 121.5 g/ha (Puccinia triticina; [2]): > 80% | pest or weed control at 121.5 g/ha (Zymoseptoria tritici; [3]): > 80% | pest or weed control at 121.5 g/ha (Zymoseptoria tritici; [4]): < 80%

COc1ccnc(C(=O)N[C@H]2COCC[C@H](Cc3ccc(F)cc3)[C@@H](OC(=O)C(C)C)[C@H](C)OC2=O)c1OC(C)=O [Compound 75]
pest or weed control at 121.5 g/ha (Puccinia triticina; [1]): > 80% | pest or weed control at 121.5 g/ha (Puccinia triticina; [2]): > 80% | pest or weed control at 121.5 g/ha (Zymoseptoria tritici; [3]): > 80% | pest or weed control at 121.5 g/ha (Zymoseptoria tritici; [4]): < 80%

COc1ccnc(C(=O)N[C@H]2COCC[C@H](Cc3ccc(F)cc3)[C@@H](OC(=O)C(C)C)[C@H](C)OC2=O)c1OCOC(C)=O [Compound 76]
pest or weed control at 121.5 g/ha (Puccinia triticina; [1]): > 80% | pest or weed control at 121.5 g/ha (Puccinia triticina; [2]): > 80% | pest or weed control at 121.5 g/ha (Zymoseptoria tritici; [3]): > 80% | pest or weed control at 121.5 g/ha (Zymoseptoria tritici; [4]): > 80%

COc1ccnc(C(=O)N[C@H]2COCC[C@H](Cc3ccc(F)cc3)[C@@H](OCC3CC3)[C@H](C)OC2=O)c1OC(C)=O [Compound 77]
pest or weed control at 121.5 g/ha (Puccinia triticina; [1]): > 80% | pest or weed control at 121.5 g/ha (Puccinia triticina; [2]): > 80% | pest or weed control at 121.5 g/ha (Zymoseptoria tritici; [3]): > 80% | pest or weed control at 121.5 g/ha (Zymoseptoria tritici; [4]): < 80%

CCOCC(=O)OCOc1c(OC)ccnc1C(=O)N[C@H]1COCC[C@H](Cc2ccc(F)cc2)[C@@H](OCC2CC2)[C@H](C)OC1=O [Compound 78]
pest or weed control at 121.5 g/ha (Puccinia triticina; [1]): > 80% | pest or weed control at 121.5 g/ha (Puccinia triticina; [2]): > 80% | pest or weed control at 121.5 g/ha (Zymoseptoria tritici; [3]): > 80% | pest or weed control at 121.5 g/ha (Zymoseptoria tritici; [4]): < 80%

CC[C@H]1CCOC[C@H](NC(=O)c2nccc(OC)c2OCOC(C)=O)C(=O)O[C@@H](C)[C@@H]1OC(=O)C1CC1 [Compound 79]
pest or weed control at 121.5 g/ha (Puccinia triticina; [1]): > 80% | pest or weed control at 121.5 g/ha (Puccinia triticina; [2]): > 80% | pest or weed control at 121.5 g/ha (Zymoseptoria tritici; [3]): > 80%

CC[C@H]1CCOC[C@H](NC(=O)c2nccc(OC)c2OC(C)=O)C(=O)O[C@@H](C)[C@@H]1OC(=O)c1ccccc1 [Compound 80]
pest or weed control at 121.5 g/ha (Puccinia triticina; [1]): > 80% | pest or weed control at 121.5 g/ha (Puccinia triticina; [2]): > 80% | pest or weed control at 121.5 g/ha (Zymoseptoria tritici; [3]): > 80% | pest or weed control at 121.5 g/ha (Zymoseptoria tritici; [4]): < 80%

COc1ccnc(C(=O)N[C@H]2COCC[C@H](OCc3ccccc3)[C@@H](OCc3ccccc3)[C@H](C)OC2=O)c1O [Compound 81]
pest or weed control at 100 ppm (Puccinia triticina; [1]): > 80% | pest or weed control at 100 ppm (Puccinia triticina; [2]): > 80% | pest or weed control at 100 ppm (Zymoseptoria tritici; [3]): > 80%

CCCCO[C@H]1CCOC[C@H](NC(=O)c2nccc(OC)c2O)C(=O)O[C@@H](C)[C@@H]1OCc1ccccc1 [Compound 82]
pest or weed control at 100 ppm (Puccinia triticina; [1]): > 80% | pest or weed control at 100 ppm (Puccinia triticina; [2]): > 80% | pest or weed control at 100 ppm (Zymoseptoria tritici; [3]): < 80% | pest or weed control at 100 ppm (Zymoseptoria tritici; [4]): > 80%

CCCCO[C@H]1CCOC[C@H](NC(=O)c2nccc(OC)c2O)C(=O)O[C@@H](C)[C@@H]1OC(=O)C(C)C [Compound 83]
pest or weed control at 100 ppm (Puccinia triticina; [1]): > 80% | pest or weed control at 100 ppm (Puccinia triticina; [2]): > 80% | pest or weed control at 100 ppm (Zymoseptoria tritici; [3]): < 80% | pest or weed control at 100 ppm (Zymoseptoria tritici; [4]): > 80%

CCCCO[C@H]1CCOC[C@H](NC(=O)c2nccc(OC)c2O)C(=O)O[C@@H](C)[C@@H]1OC(=O)c1ccccc1 [Compound 84]
pest or weed control at 100 ppm (Puccinia triticina; [1]): > 80% | pest or weed control at 100 ppm (Puccinia triticina; [2]): > 80% | pest or weed control at 100 ppm (Zymoseptoria tritici; [3]): < 80% | pest or weed control at 100 ppm (Zymoseptoria tritici; [4]): > 80%

CCCCO[C@H]1CCOC[C@H](NC(=O)c2nccc(OC)c2O)C(=O)O[C@@H](C)[C@@H]1OC(=O)C1CC1 [Compound 85]
pest or weed control at 100 ppm (Puccinia triticina; [1]): > 80% | pest or weed control at 100 ppm (Puccinia triticina; [2]): > 80% | pest or weed control at 100 ppm (Zymoseptoria tritici; [3]): < 80% | pest or weed control at 100 ppm (Zymoseptoria tritici; [4]): > 80%

COc1ccnc(C(=O)N[C@H]2COCC[C@H](OCC(C)C)[C@@H](OCC(C)C)[C@H](C)OC2=O)c1O [Compound 86]
pest or weed control at 100 ppm (Puccinia triticina; [1]): > 80% | pest or weed control at 100 ppm (Puccinia triticina; [2]): < 80% | pest or weed control at 100 ppm (Zymoseptoria tritici; [3]): < 80% | pest or weed control at 100 ppm (Zymoseptoria tritici; [4]): > 80%
